Data published in patent US7541375B2, “Azole derivatives and pharmaceutical compositions containing them” (Laboratoires Serono SA, priority 2001, dated 2009).
“And” between values parts separate entries of the source, which are not always exact repeats. Identical values can stand only once. One block for each compound: values may come before it.

Columns and labels:
[1] = biological target: MEK-1 (constitutively active MEK1EE) (Homo sapiens, UniProt Q02750, S218E/S222E); experiment: MEK-1 enzyme assay (HTRF, phosphorylation of ERK2K52A); format: biochemical; conditions: 3 μM ATP, 2 hours room temperature
MEK-1 (constitutively active MEK1EE), sequence (Q02750 whole entry S218E/S222E, species assumed): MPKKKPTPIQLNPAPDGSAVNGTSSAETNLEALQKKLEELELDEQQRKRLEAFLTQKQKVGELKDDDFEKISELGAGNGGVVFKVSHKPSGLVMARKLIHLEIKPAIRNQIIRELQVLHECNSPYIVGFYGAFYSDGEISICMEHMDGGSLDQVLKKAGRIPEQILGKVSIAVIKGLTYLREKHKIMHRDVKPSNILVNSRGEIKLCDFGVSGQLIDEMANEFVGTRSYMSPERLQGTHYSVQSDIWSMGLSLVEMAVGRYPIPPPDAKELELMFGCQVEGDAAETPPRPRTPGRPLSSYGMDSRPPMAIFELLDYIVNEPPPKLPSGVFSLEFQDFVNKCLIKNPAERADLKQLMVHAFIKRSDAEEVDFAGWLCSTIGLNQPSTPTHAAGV
Description: A 50 μl mixture containing 15 nM constitutively active MEK1EE and 300 nM of ERK2K52A were incubated either in the presence or absence of the compounds of the invention in 1% DMSO and 1× kinase buffer containing 3 μM ATP, […], […], 1 mM DTT and 100 μM Na3VO4 in Wallac 96 well black plates for 2 hours at room temperature. At the end of the incubation the enzyme reaction was quenched by adding 50 μl of assay buffer containing […] Tris-HCl, 50 mM EDTA, 0.1% BSA and a mixture of 1.25 μg/ml europium labeled anti-phosphotyrosine mAb and 5 μg/ml allophycocyanin labeled (APC) anti-GST antibody. Plates were agitated on a plate shaker for 30 minutes and phosphorylation of the ERK2K52A substrate was measured by homogenous time resolved fluorescence (HTRF) at 340 nm excitation and […] emission filters on the VICTOR V fluorescence plate reader. The results are of phosphorylation of ERK-2, with inhibition occurring at the MEK-1 level. Results were as follows for the specified compounds: […]

MEK-1/ERK-2 = MEK-1/ERK-2 (Homo sapiens, UniProt Q02750, S218E/S222E); experiment: MEK-1/ERK-2 enzyme cascade assay (33P incorporation into MBP biotin); format: biochemical; conditions: 3 μM ATP, phosphorylation of myelin basic protein
MEK-1/ERK-2, sequence (Q02750 whole entry S218E/S222E): as the sequence (Q02750 whole entry S218E/S222E, species assumed) above
Description: MEK-1/ERK-2 Enzyme Cascade Assay
A 50 μl mixture containing 40 nM of constitutively active MEK1EE, 160 nM of ERK2 and 10 μM MBP biotin were incubated in the presence or absence of the below compound of the invention in 1% DMSO and 1× kinase buffer containing 3 μM ATP, 50 mM Tris-HCl pH 8.0, 10 mM MgCl2, 1 mM DTT, 100 μM Na3VO4 and […] ^33P-γATP in Wallac 96 well white plates for 2 hours at room temperature. At the end of the incubation the enzyme reaction was quenched by adding 200 μl Phosphate buffered saline (PBS) solution containing 1.25 mg/ml Streptavidin SPA beads, 50 mM EDTA and 0.1% Triton 100 and incubated further for 12-14 hours at room temperature. ^33P-γATP incorporation into MBP biotin was measured using the top counts. The assay read-out is phosphorylation of myelin basic protein, which is a representative substrate of ERK-2-phos. This assay is a further confirmatory screen of the assay of Example 38 above.

[2] = system: murine colon carcinoma C26 cells; experiment: Growth of tumors induced in CDF1 mice with murine colon carcinoma C26 cells; format: in vivo
Description: The aim of this study was to evaluate the effects of Example No. 30 in FIG. 1: […] Control group (empty circles) was treated with NP3S (5% N-methylpyrrolidone/30% PEG400/25% PEG200/20% Propylene Glycol in Saline) per os bid. […] Drugs treatment started 8 days following C26 cell injection and then continued for 13 days. […] Tumor volume and body weight were monitored every three days from day 8 until day 20.

TNF release (TNF-α) = experiment: Inhibition of TNF-alpha production in LPS-stimulated mice; format: in vivo; conditions: −15 mn before LPS
Description: Injection of lipopolysaccharide (LPS) induces a rapid release of soluble tumor necrosis factor (TNF-α) into the periphery. This model is used to identify potential blockers of TNF release in vivo
The potency of compounds of the invention as inhibitors of serum TNFα elevation in mice treated with LPS is determined as follows:
• For per oral (p.o.) administration, compounds of the invention are formulated in 0.5% carboxymethyl cellulose/0.25% Tween 80 in saline and given orally via gavage […] to LPS administration. Dexamethasone is used as the reference compound and given at 0.1 mg/kg per orally. • C3/hen female mice (Iffa-Credo, France) are injected intraperitoneally with 0.3 mg/kg LPS (Escherichia coli, Serotype 0111:B4, Sigma Chemical Co., St. Louis, Mo.) and sacrificed 90 min later by CO2 asphyxiation. Blood is immediately taken from caudal vena cava and plasma prepared and frozen at −80° C. Each group of treatment contained 6 animals.

Colon C26 cell = Colon C26 cell anti-proliferation assay; format: cell-based, murine; conditions: Colon C26 cells, 2×10^3 cells/well
Description: (§1) Compounds of the invention were tested for anti-proliferation activity against colon tumors (Colo205, HT-29, C26 and SW660 cell lines) by procedures described in Example 40 above. 2×10^3 cells/well used.

HT-29 cell (ATCC HTB-38) = experiment: HT-29 cell anti-proliferation assay; format: cell-based; conditions: HT-29 cells, 2×10^3 cells/well
Description: as §1

[3] = system: Breast Adeno Carcinoma (MCF-7 cell line); conditions: MCF-7 cell line (Example 42)
Description: (§2) Breast cancer MCF-7 cells or ovarian cancer OVCAR-3 cells were plated in 96 well Packard white plates at 4×10^3 cells/well and cultured overnight at 37° C. in 5% CO2. The below specified test compounds were serially diluted in 100% DMSO and subsequently added to cells to reach a final concentration of 0.5% DMSO. MCF-7 and OVCAR-3 (ATCC HTB-161) plates were incubated for an additional 4 to 5 days respectively at 37° C. and 5% CO2 and cell proliferation was quantitated using the ATP lite cell proliferation kit (Packard).
(§3) (R) 4-iodo-benzoic acid 1-imidazol-1-yl methyl-2-phenoxy-ethyl ester (Example No. 1) was tested for anti-proliferation activity against additional tumor cell types as specified below by procedures described in Example 39 above. American Type Culture Collection (ATCC) deposit numbers are indicated below for many of the tested cell types. Results express, as follows, the concentration of compound of the invention (μM) required to inhibit the proliferation of the tumor cells by 50 percent relative untreated controls (i.e. IC50 (μM)).

[4] = system: Lung Carcinoma (PC-6 cell line)
Description: as §2, §3

[5] = system: Colon Adeno Carcinoma (DLD-1 cell line; ATCC CCL-221)
Description: as §2, §3

[6] = system: Kidney Adeno Carcinoma (ACHN cell line; ATCC CRL-1611)
Description: as §2, §3

[7] = system: Lung Carcinoma (A549 cell line; ATCC CCL-185)
Description: as §2, §3

[8] = system: Colon Adeno Carcinoma (Grade II) (HT-29 cell line; ATCC HTB-38); conditions: HT-29 cell line (Example 42)
Description: as §2, §3

[9] = system: Pancreatic Carcinoma (MIA PaCa-2 cell line; ATCC CRL-1420)
Description: as §2, §3

[10] = system: Breast Ductal Carcinoma (T47D cell line; ATCC HTB-133)
Description: as §2, §3

[11] = system: Prostate Adenocarcinoma (PC-3 cell line; ATCC CRL-1435)
Description: as §2, §3

[12] = system: Neuroepithelioma (SK-N-MC cell line; ATCC HTB-10)
Description: as §2, §3

[13] = system: Chronic Myelogenous Leukemia (K562 cell line; ATCC CCL-243)
Description: as §2, §3

[14] = system: Pancreatic Epithelioid Carcinoma (PANC-1 cell line; ATCC CRL-1469)
Description: as §2, §3

[15] = system: Kidney Carcinoma (A498 cell line; ATCC HTB-44)
Description: as §2, §3

[16] = system: Promyelocytic Leukemia (HL-60 cell line; ATCC CRL-240)
Description: as §2, §3

[17] = system: Malignant Melanoma (SK-MEL-5 cell line; ATCC HTB-70)
Description: as §2, §3

[18] = system: ovarian cancer OVCAR-3 cells; experiment: OVCAR-3 tumor cell proliferation assay; format: cell-based; conditions: OVCAR-3, ATP lite cell proliferation kit
[19] = system: SW 660 cell (ATCC CCL-227); experiment: SW 660 cell anti-proliferation assay; format: cell-based; conditions: SW 660 cells, 2×10^3 cells/well
Description: as §1

[20] = system: primary rat granulosa cell; conditions: compound at 10 nM to 100 nM in the presence of picomolar FSH (2 to 5 picomolar)
Description: Cells were plated at 5000, 8,000 and 20,000 cells/well/200 μl of GAB medium on poly-D-lysine coated 96-well tissue culture plates. Plates were incubated at 37° C. in a 5% CO/95% air incubator for 3 days. […] The compound of the invention and picomolar FSH were then added to the cultures. Cells were incubated @ 37° C. in 5% CO2. Three days later, cell supernatants were collected and diluted 1:100 in GAB medium for measurement of estradiol by RIA. The RIA was performed according to manufacturer directions except that an estradiol standard was prepared in absolute ethanol at 100 ng/ml and then further diluted in GAB medium, instead of kit buffer.

[21] = system: Breast cancer MCF-7 cells; experiment: MCF-7 tumor cell proliferation assay; format: cell-based; conditions: MCF-7, ATP lite cell proliferation kit
[22] = system: Colon 205 cell (ATCC CCL-222); experiment: Colon 205 cell anti-proliferation assay; format: cell-based; conditions: Colon 205 cells, 2×10^3 cells/well
Description: as §1

IC50 [1]: 1630 ± 241 nM | IC50 (MEK-1/ERK-2): 1780 ± 254 nM
Compound: COc1ccc(C(=O)OC(COc2ccccc2)Cn2ccnc2)cc1 (racemic) [4-methoxy-benzoic acid 1-imidazol-1-yl methyl-2-phenoxy-ethyl ester (racemic), 4-methoxy-benzoic acid 1-imidazol-1-yl methyl-2-phenoxy-ethyl ester]

Compound: O=P1(N(CCCl)CCCl)NCCCO1 (stereo not shown) [Cyclophosphamide, reference compound]
inhibition of tumor growth at day 20 ([2]; 50 mg/kg s.c. every third day, 5 treatments, day 20): 73% | tumor growth (tumor volume) ([2]; 50 mg/kg s.c. every third day, day 11 until day 20 (p<0.001)): significantly slowed down tumor growth | tumor-associated loss in body weight ([2]; 50 mg/kg s.c. every third day, from day 11): markedly prevented

Compound: C[C@@H]1C[C@H]2[C@@H]3CCC4=CC(=O)C=C[C@]4(C)[C@@]3(F)[C@@H](O)C[C@]2(C)[C@@]1(O)C(=O)CO [Dexamethasone, reference compound]
TNF Release vs LPS inj. % of inhibition Mean ± SEM (TNF release (TNF-α); 0.1 mg/kg p.o.): 86 ± 6% and 88 ± 1%

Compound: O=C(OC(COc1ccccc1)Cn1ccnc1)c1ccc(I)cc1 (stereo not shown) [Example 1, 4-Iodo-benzoic acid 1-imidazol-1-yl methyl-2-phenoxy-ethyl ester]
IC50 (Colon C26 cell): 2330 nM | IC50 [1]: 39 ± 12 nM | IC50 (HT-29 cell (ATCC HTB-38)): 3.5 µM | IC50 [3]: 33 µM | IC50 [4]: 43 µM | IC50 [5]: 36 µM | IC50 [6]: > 100 µM | IC50 [7]: 25 µM | IC50 [8]: 4 µM | IC50 [9]: 3.1 µM | IC50 [10]: 11 µM | IC50 [11]: 24 µM | IC50 [12]: 6.7 µM | IC50 [13]: 33 µM | IC50 [14]: > 100 µM | IC50 [15]: 54 µM | IC50 [16]: 3.6 µM | IC50 [17]: 11 µM | IC50 [18]: 25 µM | IC50 [19]: 2100 nM | estradiol production [20]: induces estradiol production | IC50 (MEK-1/ERK-2): 36 ± 8 nM | IC50 [21]: 15 ± 7.1 µM | IC50 [22]: 1400 nM

IC50 [1]: 860 ± 93 nM | IC50 (HT-29 cell (ATCC HTB-38); Homo sapiens): 27.5 µM | IC50 ([18]; Homo sapiens): 40 µM | IC50 (MEK-1/ERK-2): 920 ± 174 nM | IC50 ([21]; Homo sapiens, MCF7): 32.5 ± 3.5 µM
Compound: COc1ccc(C(=O)O[C@@H](COc2ccccc2)Cn2ccnc2)cc1 [Example 6, (R)-4-Methoxy-benzoic acid 1-imidazol-1-yl methyl-2-phenoxy-ethyl ester]
IC50 [19]: 20000 nM | IC50 [22]: 22500 nM

IC50 [1]: 15 nM
Compound: O=C(OC(COc1ccc([N+](=O)[O-])cc1)Cn1ccnc1)c1ccc(I)cc1 (stereo not shown) [Example 18, 4-Iodo-benzoic acid 2-imidazol-1-yl-1-(4-nitro-phenoxymethyl)-ethyl ester]
IC50 (Colon C26 cell; Mus musculus): 570 nM

Compound: O=C(O[C@@H](COc1cccnc1)Cn1ccnc1)c1ccc(I)cc1 [Example 22, 4-Iodo-benzoic acid 1-imidazol-3-yl methyl-2-(pyridin-3-yloxy)-ethyl ester]
IC50 (Colon C26 cell; Mus musculus): 1080 nM | IC50 [1]: 11 nM

IC50 [1]: 92 nM | IC50 (HT-29 cell (ATCC HTB-38); Homo sapiens): 2.8 µM | IC50 ([18]; Homo sapiens): 50 µM | IC50 (MEK-1/ERK-2): 85 nM
Compound: O=C(N[C@@H](COc1ccccc1)Cn1ccnc1)c1ccc(I)cc1 [Example 27, N-(1-imidazol-1-ylmethyl-2-phenoxy-ethyl)-4-iodo-benzamide]
IC50 [19]: 2200 nM | TNF Release vs LPS inj. % of inhibition Mean ± SEM (TNF release (TNF-α); 12.5 mg/kg p.o.): 32 ± 5% | TNF Release vs LPS inj. % of inhibition Mean ± SEM (TNF release (TNF-α); 50 mg/kg p.o.): 39 ± 3% | IC50 [22]: 2100 nM

IC50 [1]: 21 nM
Compound: O=C(NC(COc1ccc(F)cc1)Cn1ccnc1)c1ccc(I)cc1 (stereo not shown) [Example 30, N-[2-(4-Fluoro-phenoxy)-1-imidazol-1-ylmethyl-ethyl]-4-iodo-benzamide]
tumor-induced body weight loss ([2]; 50 mg/kg p.o. bid): significant prevention of tumor-induced body weight loss | tumor-induced body weight loss ([2]; 100 mg/kg p.o. bid): significant prevention of tumor-induced body weight loss | inhibition of tumor growth rate evaluated at day 20 ([2]; 100 mg/kg p.o. bid, day 20, vs NP3S control): 37% | tumor growth vs NP3S control group ([2]; 100 mg/kg p.o. bid, significant from day 11 to day 20): reduced tumor growth | TNF Release vs LPS inj. % of inhibition Mean ± SEM (TNF release (TNF-α); 12.5 mg/kg p.o.): 77 ± 2% | TNF Release vs LPS inj. % of inhibition Mean ± SEM (TNF release (TNF-α); 50 mg/kg p.o.): 85 ± 3%

Compound: O=C(NC(COc1ccc(F)cc1)Cn1ccnc1Cl)c1ccc(I)cc1 (stereo not shown) [Example 34, N-[1-(2-Chloro-imidazol-1-ylmethyl)-2-(4-fluoro-phenoxy)-ethyl]-4-iodo-benzamide]
IC50 (Colon C26 cell; Mus musculus): 1250 nM

Compound: N#Cc1ccc(OCC(Cn2ccnc2Cl)NC(=O)c2ccc(I)cc2)cc1 (stereo not shown) [Example 35, N-[1-(2-Chloro-imidazol-1-ylmethyl)-2-(4-cyano-phenoxy)-ethyl]-4-iodo-benzamide]
IC50 (Colon C26 cell; Mus musculus): 300 nM
